Reference: patent US10912816B2, “Obesity-related genes and their proteins and uses thereof” (THE TRUSTEES OF COLUMBIA UNIVERSITY IN THE CITY OF NEW YORK, priority 2010, dated 2021)
“Also recorded” adds a separate entry of the source.

How the values were obtained:
[1] = Conditioned taste aversion testing; assay type: in vivo, adult female Wistar rats; settings: ip injection on test days 1-3; spexin 70 μg/kg, LiCl 63.5 mg/kg body weight (FIG. 29)
Procedure: After 20 hrs of water deprivation, rats were offered a single bottle containing 0.1% sodium saccharin for 20 min, followed by an ip injection of physiological saline (n=6), 70 μg spexin/kg body weight (n=6), or 63.5 mg LiCl/kg body weight (0.15M LiCl) (n=5) after an additional 20 min. Injections were administered on test days 1-3, with no injection on the final test day. […] Data points represent mean±SEM.
Conditioned taste aversion studies were conducted using adult female Wistar rats according to established protocols [P27-P29]. For training, rats were water but not food deprived for 20 hrs (1800-1400 hrs the following day), then offered a single bottle of water ad libitum for 20 min. Training sessions took place on 2 days of each week, spaced at 3-4 day intervals, to allow recovery of normal food intake and body weight. A total of 7 training sessions were conducted, by which time all animals had learned to drink promptly when fluid was offered. Testing was initiated on the same schedule, with 0.1% sodium saccharin rather than water as the available liquid. On test days 1-3 groups of rats were injected ip with either physiological saline, spexin (70 μg/kg body weight), or LiCl (63.5 mg/kg body weight). All groups experienced their first saccharin exposure and injection on test day 1. […]

[2] = Body weight and 24 hour feeding behavior in DIO rats (BioDaq Food Intake Monitoring System); assay type: in vivo; settings: DIO rats on treatment
Procedure: Obese adult female Wistar rats (n=4/group) received single daily injections (sc) of vehicle or Spexin (35 μg/kg BW). Body weights and food intake were measured daily. Average daily food intake (FIG. 22A) and body weight (FIG. 22B) for each group was recorded for each 24 hr period. 24 hr food intake was reduced in the Spexin treated animals (dark circles) by Day 3. […] This effect persisted well beyond the immediate treatment period, and was apparent out to Day 7.
A more detailed analysis of hourly feeding behaviors, including 1) number of “meals” during a 24 hr light/dark cycle, and 2) meal duration and incidence were continuously recorded by a BioDaq Food Intake Monitoring System (FIG. 23). Pre-treatment baselines (FIG. 23A), on-treatment responses (FIG. 23B), early (FIG. 23C) and late (FIG. 23D) “wash-out” periods are presented. […]
Obese (DIO) adult female Wistar rats (n=4/group) received single daily injections (sc) of vehicle or Spexin (35 μg/kg BW). Individual body weights and food intake were measured and recorded daily, and the average food intake and body weight for each group was recorded for each 24 hour period. For a more detailed analysis of hourly feeding behaviors, number of feeding events or “meals” during a 24 hour light/dark cycle, and frequency and durations of individual meals were continuously recorded via a BioDaq Food Intake Monitoring System (New Brunswick, N.J.).

Structure (SMILES) | total amount of 0.1% saccharin solution consumed vs saline [1] | toxicity, nausea or taste aversion behaviors [2] | toxicity, nausea or taste aversion behaviors ([2]; listed as spexin)
[Cl-].[Li+] [LiCl, reference compound] | significantly less | – | –
CSCC[C@H](NC(=O)[C@H](C)NC(=O)[C@H](CCC(N)=O)NC(=O)[C@@H]1CCCN1C(=O)[C@@H](NC(=O)[C@H](Cc1c[nH]c2ccccc12)NC(=O)[C@@H](N)CC(N)=O)[C@@H](C)O)C(=O)N[C@@H](CC(C)C)C(=O)N[C@@H](Cc1ccc(O)cc1)C(=O)N[C@@H](CC(C)C)C(=O)N[C@@H](CCCCN)C(=O)NCC(=O)N[C@@H](C)C(=O)N[C@@H](CCC(N)=O)C(N)=O [Spexin, NWTPQAMLYLKGAQ-amide] | No significant differences; also recorded: no signs of taste aversion were detected | No indications of nausea or taste aversion behaviors; also recorded: No overt signs of Spexin-induced toxic effects | did not exhibit overt toxicity or nausea
